The results in this text go back to patent US12209096B2, “Compounds and compositions for inducing chondrogenesis” (NOVARTIS AG, priority 2017, dated 2025).

A value given as a limit tells only on which side of the number the result lay.

For assay [1], the system named is C3H10T1/2 cell line. Description: alkaline phosphatase assay in C3H10T1/2. In kind it is cell-based. Particulars: Mus musculus, C3H 10T1/2, 144 h, alkaline phosphatase assay in C3H10T1/2, 6 days; for Emax: read-out: (D) % Efficacy; for IC50: read-out: (D) IC50. The protocol: To initiate differentiation in C3H10T1/2, Clone 8 (ATCC cat #CCL-226), 4,000 cells were plated/well in 384 Perkin Elmer CellCarrier Ultra plate in DMEM/High glucose (HyClone cat #SH30022.01) containing 10% FBS and 1× Antibiotic/Antimycotic (HyClone cat #SV30079.01). After 24 hours the test compound was then added to each well at the indicated dose. The cultures were grown at 37° C. for 6 days.
To detect the presence of hypertrophic cells, C3H10T1/2 were fixed with 4% paraformaldehyde and Hoeschst dye for 20 minutes, rinsed in PBS, then stained with Fast Blue RR Salt with Naphthol AS-MX Phosphate Alkaline Solution.
The ALP staining was imaged by fluoresecent microscopy, using the 561 wavelength, and/or quantified by high content imagining with the ImageXpress Micro Confocal (Molecular Devices, Sunnyvale, CA). Data analyses were performed with the customized multiwavelength cell-scoring application looking at the number of ALP positive cells per well.

Assay [2] relates to NHACs. Description: calcium flux assay. It is filed as cell-based, human. Particulars: Homo sapiens; for Emax: read-out: (A) % Efficacy. A digest of the protocol:
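FLIPR fluorescence (ex 470–495 nm, em 515–575 nm) was read before and after compound dispense at the indicated dose. Chondrocytes (NHACs), 2000 cells/well, had been dye-loaded 24 h after plating with Calcium 5 in HBSS/HEPES plus 5 mM probenecid, 1 h, room temperature.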

Consider `Cc1cc([C@@H]2[C@@H]3O[C@@H](C[C@H]3O)[C@H]2C(=O)Nc2cnc(Cl)c(Cl)c2)ccn1` [Example 84, (1S,2S,3R,4S,5R)-N-(5,6-dichloropyridin-3-yl)-5-hydroxy-3-(2-methylpyridin-4-yl)-7-oxabicyclo[2.2.1]heptane-2-carboxamide], for which, in assay [1], the Emax worked out at 31% and the IC50 was more than 20 µM. Further, in assay [2], the EC50 is more than 50 µM and the Emax turned out to be 61%.

Take `Cn1cc([C@H]2[C@H]3O[C@H](C[C@@H]3O)[C@@H]2C(=O)Nc2ccc(Cl)c(Cl)c2)cn1` [Example 152, (1R,2R,3S,4R,5S)—N-(3,4-dichlorophenyl)-5-hydroxy-3-(1-methyl-1H-pyrazol-4-yl)-7-oxabicyclo[2.2.1]heptane-2-carboxamide]: in assay [1], the Emax came out at 61% and the IC50 turned out to be 2 µM. Moreover, in assay [2], the EC50 came out at 12 µM and the Emax stood at 44%.

With `Nc1cc([C@H]2[C@H]3O[C@H](C[C@@H]3O)[C@@H]2C(=O)Nc2ccc(Cl)c(Cl)c2)ccn1` [Example 149, (1R,2R,3S,4R,5S)-3-(2-aminopyridin-4-yl)-N-(3,4-dichlorophenyl)-5-hydroxy-7-oxabicyclo[2.2.1]heptane-2-carboxamide], in assay [1], the Emax was determined as 58% and the IC50 was found to be 8.3 µM. In assay [2], the EC50 came out at 26 µM and the Emax was 112%.

On to `COc1cc([C@H]2[C@H]3O[C@H](C[C@H]3F)[C@@H]2C(=O)Nc2ccc(Cl)c(Cl)c2)ccn1` [Example 165, (1R,2R,3S,4R,5R)—N-(3,4-dichlorophenyl)-5-fluoro-3-(2-methoxypyridin-4-yl)-7-oxabicyclo[2.2.1]heptane-2-carboxamide], for which, in assay [1], the Emax was 59% and the IC50 is more than 20 µM. Moreover, in assay [2], the EC50 amounted to 6 µM and the Emax is 110%.

Regarding `COc1cc([C@H]2[C@H]3O[C@H](C[C@@H]3O)[C@@H]2C(=O)Nc2ccc(Cl)c(Cl)c2)ccn1` (single isomer, unassigned) [Example 139a], in assay [1], the Emax is 54% and the IC50 amounted to 1.8 µM. In assay [2], the EC50 came out at 25 µM and the Emax amounted to 275%.

As to `O=C(Nc1ccc(Cl)c(Cl)c1)[C@H]1[C@@H](c2ccnc(C(F)(F)F)c2)[C@H]2O[C@@H]1C[C@@H]2O` (single isomer, unassigned) [Example 54a], in assay [1], the Emax worked out at 35% and the half-maximal inhibitory concentration (IC50) is more than 20 µM. For the same compound, in assay [2], the EC50 came to 3.5 µM and the Emax worked out at 45%.

Take `Cc1cc([C@H]2[C@H]3O[C@H](C[C@H]3O)[C@@H]2C(=O)Nc2ccc(Cl)c(Cl)c2)ccn1` [Example 180, (1R,2R,3S,4R,5R)—N-(3,4-dichlorophenyl)-5-hydroxy-3-(2-methylpyridin-4-yl)-7-oxabicyclo[2.2.1]heptane-2-carboxamide]: in assay [1], the Emax worked out at 69% and the IC50 came out at 11 µM. Also, in assay [2], the EC50 worked out at 30 µM and the Emax was 113%.

Consider `O=C(Nc1cnc(Cl)c(Cl)c1)[C@H]1[C@H](c2ccnc(F)c2)[C@@H]2O[C@H]1C[C@H]2O` (single isomer, unassigned) [Example 90b], for which, in assay [1], the Emax is 45% and the IC50 is more than 20 µM. In assay [2], the EC50 was more than 50 µM and the Emax was 44%.

For the compound `COc1cc([C@H]2[C@H]3O[C@H](C[C@@H]3F)[C@@H]2C(=O)Nc2ccc(Cl)c(Cl)c2)ccn1` [Example 103, (1R,2R,3S,4R,5S)—N-(3,4-dichlorophenyl)-5-fluoro-3-(2-methoxypyridin-4-yl)-7-oxabicyclo[2.2.1]heptane-2-carboxamide], in assay [1], the Emax is 79% and the IC50 stood at 10 µM. In addition, in assay [2], the EC50 was determined as 24 µM and the Emax was 153%.

On to `Cc1cc([C@H]2[C@H]3O[C@H]([C@@H]4C[C@@H]43)[C@@H]2C(=O)Nc2cccc(C(F)(F)F)c2)ccn1` (single isomer, unassigned) [Example 121a], for which, in assay [1], the Emax was found to be 80% and the IC50 is 4.5 µM. In addition, in assay [2], the EC50 worked out at 2.7 µM and the Emax turned out to be 231%.

`COc1ccc(NC(=O)[C@H]2[C@@H]3O[C@@H]([C@H]4C[C@H]43)[C@@H]2c2cccc(C(F)(F)F)n2)cn1` [Example 128, (1S,2S,4R,5R,6R,7S)—N-(6-methoxypyridin-3-yl)-7-(6-(trifluoromethyl)pyridin-2-yl)-8-oxatricyclo[3.2.1.0^2,4]octane-6-carboxamide]: in assay [1], the Emax came out at 39% and the half-maximal inhibitory concentration (IC50) is more than 20 µM. Also, in assay [2], the EC50 was more than 50 µM and the Emax amounted to 27%.

As to `Cn1ccc([C@H]2[C@H]3O[C@H](C[C@@H]3O)[C@@H]2C(=O)Nc2ccc(Cl)c(Cl)c2)n1` [Example 153, (1R,2R,3S,4R,5S)—N-(3,4-dichlorophenyl)-5-hydroxy-3-(1-methyl-1H-pyrazol-3-yl)-7-oxabicyclo[2.2.1]heptane-2-carboxamide], in assay [1], the Emax was determined as 46% and the 50% inhibitory concentration (IC50) is more than 20 µM. In assay [2], the 50% effective concentration (EC50) came to 19 µM and the Emax was 121%.

Regarding `Cc1cc([C@H]2[C@H]3O[C@H]([C@@H]4C[C@@H]43)[C@@H]2C(=O)Nc2cccc(OC(F)(F)F)c2)ccn1` [Example 69, (1S,2S,4R,5R,6R,7S)-7-(2-methylpyridin-4-yl)-N-(3-(trifluoromethoxy)phenyl)-8-oxatricyclo[3.2.1.0^2,4]octane-6-carboxamide], in assay [1], the Emax was determined as 63% and the IC50 is more than 20 µM. Moreover, in assay [2], the EC50 turned out to be 21 µM and the Emax amounted to 180%.

Consider `O=C(Nc1ccc(Cl)c(Cl)c1)[C@H]1[C@@H]2O[C@@H]([C@H]3C[C@H]32)[C@@H]1c1cccc(C(F)(F)F)n1` [Example 120, (1S,2S,4R,5R,6R,7S)—N-(3,4-dichlorophenyl)-7-(6-(trifluoromethyl)pyridin-2-yl)-8-oxatricyclo[3.2.1.0^2,4]octane-6-carboxamide], for which, in assay [1], the Emax was determined as 119% and the IC50 was 4.4 µM. Further, in assay [2], the EC50 is 20 µM and the Emax was determined as 102%.

Take `Cc1cc([C@H]2[C@H]3O[C@H](C[C@H]3NC3CCOCC3)[C@@H]2C(=O)Nc2ccc(Cl)c(Cl)c2)ccn1` [Example 169, (1R,2R,3S,4R,5R)—N-(3,4-dichlorophenyl)-3-(2-methylpyridin-4-yl)-5-((tetrahydro-2H-pyran-4-yl)amino)-7-oxabicyclo[2.2.1]heptane-2-carboxamide]: in assay [1], the Emax was 54% and the IC50 is more than 20 µM. Further, in assay [2], the EC50 is more than 50 µM and the Emax was 69%.

For the compound `Cc1cc([C@H]2[C@H]3O[C@H](C[C@H]3N(C)C)[C@@H]2C(=O)Nc2ccc(Cl)c(Cl)c2)ccn1` [Example 166, (1R,2R,3S,4R,5R)—N-(3,4-dichlorophenyl)-5-(dimethylamino)-3-(2-methylpyridin-4-yl)-7-oxabicyclo[2.2.1]heptane-2-carboxamide], in assay [1], the Emax is 0% and the IC50 was more than 20 µM. Besides, in assay [2], the EC50 stood at 24 µM and the Emax was 68%.

In the case of `Cc1ccc([C@H]2[C@H]3O[C@H]([C@@H]4C[C@@H]43)[C@@H]2C(=O)Nc2cnc(Cl)c(Cl)c2)cn1` [Example 74, (1S,2S,4R,5R,6R,7S)—N-(5,6-dichloropyridin-3-yl)-7-(6-methylpyridin-3-yl)-8-oxatricyclo[3.2.1.0^2,4]octane-6-carboxamide], in assay [1], the Emax came to 83% and the IC50 is more than 20 µM. Besides, in assay [2], the EC50 was determined as 7.7 µM and the Emax was 90%.
